Results published in ChEMBL document CHEMBL2385065, “Antiproliferative homoscalarane sesterterpenes from two Madagascan sponges” (Bioorg Med Chem, 2013).

Key:
Type in all cases: functional, cell-based
[1] = Cytotoxicity against human H522-T1 cells after 96 hrs by CellTire-Glo luminescent assay; details: H522-T1, 96 h
A2780 = experiment: Cytotoxicity against human A2780 cells after 2 days by alamar Blue assay; details: A2780, 48 h
A2058 = experiment: Cytotoxicity against human A2058 cells after 96 hrs by CellTire-Glo luminescent assay; details: A2058, 96 h

Structure (SMILES) | IC50 [1] | IC50 (A2780) | IC50 (A2058)
CC1(O)OC(=O)C2=C1CC[C@H]1[C@]3(C)CC[C@H]4C(C)(C)CCC[C@]4(CO)[C@H]3C[C@@H](O)[C@]21C (stereo partly specified) | > 10000 nM | 8700 nM | > 10000 nM
CC(=O)O[C@H]1C[C@H]2[C@@](C)(CC[C@H]3C(C)(C)CCC[C@@]32CO)[C@@H]2CC=C(C(C)=O)[C@H](C=O)[C@@]12C |  | 650 nM | 
CC(=O)C1=CC[C@H]2[C@]3(C)CC[C@H]4C(C)(C)CCC[C@]4(CO)[C@H]3C[C@@H](O)[C@]2(C)[C@H]1C=O (relative stereo) | 610 nM | 280 nM | > 370 nM
CC1(C)CCC[C@@]2(CO)[C@H]1CC[C@]1(C)[C@@H]2C[C@@H](O)[C@]2(C)[C@H]3C=CC(=O)C3=CC[C@@H]12 (relative stereo) | 5280 nM | 4500 nM | 4170 nM
CC(=O)C1=CC[C@H]2[C@]3(C)CC[C@H]4C(C)(C)CCC[C@]4(CO)[C@H]3C[C@H](O)[C@]2(C)[C@@H]1C=O (relative stereo) | 1700 nM | 260 nM | 1830 nM
CC(=O)O[C@H]1C(=O)[C@@]2(C)[C@H]([C@H](OC(=O)c3ccccc3)[C@]3(O)C[C@H](OC(=O)[C@H](O)[C@@H](NC(=O)c4ccccc4)c4ccccc4)C(C)=C1C3(C)C)[C@]1(OC(C)=O)CO[C@@H]1C[C@@H]2O [PACLITAXEL] | 8.1 nM | 12 nM | 4.7 nM
